Results as given in US8163795B2, “Chroman derivatives, medicaments and use in therapy” (Marshall Edwards, Inc., priority 2004, dated 2012).
Read-outs that look alike come from different tables or passages of the source.

Experiments:
[1] = test system: IGR3 melanoma cells (Trail-resistant); assay: Apoptosis incidence in melanoma cells; type: cell-based
[2] = test system: SKOV-3 ovarian cancer cell line; assay: Proliferation assay (MTT); type: cell-based; conditions: Homo sapiens, SK-OV-3
[3] = test system: TRAIL-sensitive and -resistant melanoma cells; assay: Apoptosis incidence, statements over several melanoma cell lines; type: cell-based; conditions: 4 μM, 24 hr exposure, DHE-treated cells
[4] = test system: ME4405 melanoma cells (TRAIL sensitive); assay: Apoptosis incidence in melanoma cells; type: cell-based
[5] = test system: normal fibroblasts (MRC-5); assay: Apoptosis in normal fibroblasts; type: cell-based; conditions: same concentration (8 μM) and exposure times (24 and 48 hr) as melanoma cells
Description: Studies were conducted on normal fibroblasts (MRC-5) and TRAIL-sensitive melanoma cells (ME4405 and MEL-RM) using 8 μM of either DHE, or HMC over 24 and 48 hr of exposure (FIG. 9).

[6] = test system: NCI-H23 (Lung); assay: Proliferation assay (MTT); type: cell-based; conditions: Homo sapiens, Table 2.1
Description: (§1) All cultures were supplemented with 10% FCS (fetal calf serum CSL, Australia), penicillin (100 U/ml), streptomycin ([…]), L-glutamine (2 mM) and sodium bicarbonate (1.2 g/L), and cultured at 37° C. in a humidified atmosphere of 5% CO2. All cell lines were purchased from ATCC (Maryland, USA) except where noted.
(§2) IC50 values were determined for each cell line. Cells were seeded in 96-well plates at an appropriate cell density as determined from growth kinetics analysis and cultured for 5 days in the absence and presence of the test compounds. Cell proliferation was assessed after the addition of 20 μl of 3-4,5 dimethylthiazol-2,5-diphenyl tetrazolium bromide (MTT, 2.5 mg/ml in PBS, Sigma) for 3-4 hrs at 37° C. according to manufacturer's instructions. IC50 values were calculated from semi-log plots of % of control proliferation on the y-axis against log dose on the x-axis.

[7] = test system: DU145 (Prostate); assay: Proliferation assay (MTT); type: cell-based; conditions: Homo sapiens, DU-145, Table 2.1
Description: as §1, §2

[8] = test system: HTB-138 (Glioma); assay: Proliferation assay (MTT); type: cell-based; conditions: Table 2.1; Glioma HTB-138
Description: as §1, §2

[9] = test system: CCRF-CEM (Leukemic); assay: Proliferation assay (MTT); type: cell-based; conditions: Homo sapiens; Table 2.1; Leukemic CCRF-CEM
Description: as §1, §2

[10] = test system: HT-29 (Colorectal); assay: Proliferation assay (MTT); type: cell-based; conditions: Homo sapiens; Table 2.1; Colorectal HT-29
Description: as §1, §2

[11] = test system: MCF-7 breast cancer cell line; assay: Proliferation assay (MTT); type: cell-based; conditions: Homo sapiens, MCF7; Table 2.1; Breast MCF-7
Description: as §1, §2

[12] = test system: A2780 (Ovarian); assay: Proliferation assay (MTT); type: cell-based; conditions: Homo sapiens, Table 2.1
Description: as §1, §2

[13] = test system: RPMI-8226 (Leukemic); assay: Proliferation assay (MTT); type: cell-based; conditions: Homo sapiens; Table 2.1; Leukemic RPMI-8226
Description: as §1, §2

[14] = test system: LNCaP (Prostate); assay: Proliferation assay (MTT); type: cell-based; conditions: Homo sapiens, Table 2.1
Description: as §1, §2

[15] = test system: NCI-H460 (Lung); assay: Proliferation assay (MTT); type: cell-based; conditions: Homo sapiens; Table 2.1; Lung NCI-H460
Description: as §1, §2

[16] = test system: HCT-15 (Colorectal); assay: Proliferation assay (MTT); type: cell-based; conditions: Homo sapiens; Table 2.1; Colorectal HCT-15
Description: as §1, §2

[17] = test system: MM96L melanoma cell line; assay: Proliferation assay (MTT); type: cell-based; conditions: Homo sapiens, Table 15
Description: as §1, §2

[18] = test system: PC3 prostate cancer cell line; assay: Proliferation assay (MTT); type: cell-based; conditions: Table 2.1
Description: as §1, §2

[19] = test system: SKMe128 melanoma cell line; assay: Proliferation assay (MTT); type: cell-based; conditions: Table 15
Description: as §1, §2

[20] = test system: HPAC (CRL-2119) pancreatic cancer cell line; assay: Proliferation assay (MTT); type: cell-based, human; conditions: Homo sapiens, HPAC
[21] = test system: rabbit kidney cells (RK); assay: Proliferation assay (MTT), normal cell toxicity; type: cell-based; conditions: read-out: IC50
Description: (§3) The normal cell line NFF (neonatal foreskin fibroblasts) was a sift from Dr. Peter Parsons (Queensland Institute of Medical Research). RK (rabbit kidney) cells were obtained from Miller Whalley (Macquarie University). Both cell lines were cultured in RPMI supplemented with 10% FCS(CSL, Australia), penicillin (100 U/ml), streptomycin ([…]), L-glutamine (2 mM) and sodium bicarbonate (1.2 g/L), and cultured at 37° C. in a humidified atmosphere of 5% CO2.
as §2

[22] = test system: CP70 ovarian cancer cell line; assay: Proliferation assay (MTT); type: cell-based
[23] = DHE and HMC pharmacokinetics, oral, mice; type: in vivo, female BALB/c mice; conditions: for Free plasma concentration: 50 mg/kg p.o.
Description: HMC and DHE were prepared as homogenous suspensions in 1% CMC (m:v, water). Both formulations were delivered orally by gavage to female BALB/c mice at a dosage of 50 mg/kg. Three animals were allocated to each timepoint (15 min, 30 min, 1 hr, 4 hr and 24 hr). At each respective timepoint, animals were euthanased by cervical dislocation and blood collected. Free HMC was analysed by mass spectroscopy.

[24] = test system: Mel-AT melanoma cells (Trail +ve/Caspase 8 −ve); assay: Apoptosis incidence in melanoma cells; type: cell-based
[25] = test system: MDA-MB-468 breast cancer cell line; assay: Proliferation assay (MTT); type: cell-based; conditions: Homo sapiens, MDA-MB-468
[26] = test system: Neonatal foreskin fibroblasts (NFF); assay: Proliferation assay (MTT), normal cell toxicity; type: cell-based, Human; conditions: read-out: IC50
Description: as §3, §2

[27] = test system: MEL-RM melanoma cells (TRAIL sensitive); assay: Apoptosis incidence in melanoma cells; type: cell-based
[28] = test system: MM200 melanoma cell line; assay: Proliferation assay (MTT); type: cell-based

SMILES: Oc1ccc(C2=Cc3ccc(O)cc3OC2)cc1 [DHE, dehydroequol, reference compound]
- Percent Apoptosis ([1]; 24 hr exposure, 1 uM): 0%
- Percent Apoptosis ([1]; 24 hr exposure, 2 uM): 0%
- Percent Apoptosis ([1]; 24 hr exposure, 4 uM): 1%
- Percent Apoptosis ([1]; 24 hr exposure, 8 uM): 3%
- Percent Apoptosis ([1]; 24 hr exposure, 20 uM): 4%
- Percent Apoptosis ([1]; 48 hr exposure, 1 uM): 1%
- Percent Apoptosis ([1]; 48 hr exposure, 2 uM): 1%
- Percent Apoptosis ([1]; 48 hr exposure, 4 uM): 2%
- Percent Apoptosis ([1]; 48 hr exposure, 8 uM): 8%
- Percent Apoptosis ([1]; 48 hr exposure, 20 uM): 8%
- IC50 [2]: 21.8 ± 4.65 µM
- incidence of apoptosis [3]: 0-1%
- Percent Apoptosis ([4]; 24 hr exposure, 1 uM): 0%
- Percent Apoptosis ([4]; 24 hr exposure, 2 uM): 2%
- Percent Apoptosis ([4]; 24 hr exposure, 4 uM): 2%
- Percent Apoptosis ([4]; 24 hr exposure, 8 uM): 6%
- Percent Apoptosis ([4]; 24 hr exposure, 20 uM): 11%
- Percent Apoptosis ([4]; 48 hr exposure, 1 uM): 1%
- Percent Apoptosis ([4]; 48 hr exposure, 2 uM): 3%
- Percent Apoptosis ([4]; 48 hr exposure, 4 uM): 14%
- Percent Apoptosis ([4]; 48 hr exposure, 8 uM): 40%
- Percent Apoptosis ([4]; 48 hr exposure, 20 uM): 35%
- induction of apoptosis in normal fibroblasts [5]: do not induce apoptosis
- IC50 [6]: 8.75 ± 7.2 µM
- IC50 [7]: 5.95 ± 1.5 µM
- IC50 [8]: 7.35 ± 0.89 µM
- IC50 [9]: 1.7 ± 0.68 µM
- IC50 [10]: 50.5 ± 21.9 µM
- IC50 [11]: 21.5 ± 13.2 µM
- IC50 [12]: 1.7 ± 0.61 µM
- IC50 [13]: 3.72 ± 0.08 µM
- IC50 [14]: 4.8 ± 3.8 µM
- IC50 [15]: 10.6 ± 3.8 µM
- IC50 [16]: 24.4 ± 12.6 µM
- IC50 [17]: 4.76 µM
- IC50 [18]: 9.09 ± 8.12 µM
- IC50 [19]: 4.4 µM
- IC50 [20]: 56.6 ± 16.8 µM
- IC50 ([21]; Oryctolagus cuniculus, rabbit kidney cells): > 150 µM
- IC50 ([21]; Table 1, Rabbit Kidney): > 150 µM
- IC50 [22]: 1.69 ± 0.62 µM
- Free plasma concentration ([23]; Time 0.25): 3300 ± 130 nM
- Free plasma concentration ([23]; Time 0.5): 2900 ± 50 nM
- Free plasma concentration ([23]; Time 1): 1500 ± 110 nM
- Free plasma concentration ([23]; Time 4): 1300 ± 70 nM
- Free plasma concentration ([23]; Time 24): 150 ± 40 nM
- maximum plasma concentration of the free form ([23]; oral 50 mg/kg): 3.3 µM
- ratio of free:total ([23]; oral 50 mg/kg): 0.64
- time of maximum free concentration ([23]; oral 50 mg/kg): 15 min
- Percent Apoptosis ([24]; 24 hr exposure, 1 uM): 0%
- Percent Apoptosis ([24]; 24 hr exposure, 2 uM): 3%
- Percent Apoptosis ([24]; 24 hr exposure, 4 uM): 4%
- Percent Apoptosis ([24]; 24 hr exposure, 8 uM): 8%
- Percent Apoptosis ([24]; 24 hr exposure, 20 uM): 10%
- Percent Apoptosis ([24]; 48 hr exposure, 1 uM): 1.5%
- Percent Apoptosis ([24]; 48 hr exposure, 2 uM): 5%
- Percent Apoptosis ([24]; 48 hr exposure, 4 uM): 15%
- Percent Apoptosis ([24]; 48 hr exposure, 8 uM): 43%
- Percent Apoptosis ([24]; 48 hr exposure, 20 uM): 40%
- IC50 [25]: 7.9 ± 3.5 µM
- IC50 ([26]; Homo sapiens, Fibroblast, NFF): > 150 µM
- IC50 ([26]; Table 1, Neonatal Foreskin Fibroblasts (Human, NFF)): > 150 µM
- Percent Apoptosis ([27]; 24 hr exposure, 1 uM): 0%
- Percent Apoptosis ([27]; 24 hr exposure, 2 uM): 0%
- Percent Apoptosis ([27]; 24 hr exposure, 4 uM): 0%
- Percent Apoptosis ([27]; 24 hr exposure, 8 uM): 2%
- Percent Apoptosis ([27]; 24 hr exposure, 20 uM): 5%
- Percent Apoptosis ([27]; 48 hr exposure, 1 uM): 1%
- Percent Apoptosis ([27]; 48 hr exposure, 2 uM): 1.5%
- Percent Apoptosis ([27]; 48 hr exposure, 4 uM): 3%
- Percent Apoptosis ([27]; 48 hr exposure, 8 uM): 10%
- Percent Apoptosis ([27]; 48 hr exposure, 20 uM): 12%
- IC50 ([28]; Table 2.1, Melanoma MM200): 2.9 µM
- IC50 ([28]; Table 15, melanoma MM200, monotherapy): 4.77 ± 4 µM
